According to US10675260B2, “Methods and pharmaceutical compositions for preventing or treating immunoinflammatory dermal disorders” (TWi Biotechnology, Inc., priority 2017, dated 2020):

Columns and labels:
IL-8 mRNA = experiment: Quantitation of IL-8 mRNA expression by quantitative real-time PCR; assay type: cell-based, human; conditions: BP IgG-treated HaCaT cells; 0.1, 1, 10 μM; 48 h; RT-qPCR normalized to GAPDH
Description: (§1) IL-6 and IL-8 messenger RNA (mRNA) levels were quantitated using quantitative real-time polymerase chain reaction (qPCR) as reported previously. BP IgG-treated HaCaT cells were cultured with or without diacerein or berberine or clobetasol propionate for 48 h. Total RNA was isolated from cultured HaCaT cells using TRIzol reagent (LifeTechnologies) according to the manufacturer's instruction. Complementary DNA (cDNA) was reverse-transcribed from isolated RNA by incubating 1 μg of RNA with the RevertAid First Strand cDNA Synthesis Kit (Thermo Scientific) following the manufacturer's instructions. Quantitative RT-PCR was performed in a Mastercycler (Eppendorf) using SYBR® Select Master Mix (Life Technologies). PCR mixtures contained 0.5 μM of each forward and reverse primers. Each reaction mixture was subjected to 2 min at 50° C. and 2 min at 95° C. followed by 40 cycles with 15 seconds at 95° C. and 1 min at 60° C. Data were normalized to the housekeeping gene glyceraldehyde-3-phosphate dehydrogenase (GAPDH). The primers used in RT-PCR were as follows: IL-8 messenger RNA (mRNA), forward, 5′-ACCGGAAGGAACCATCTCAC-3′, and reverse, 5′-AAACTGCACCTTCACACAGAG-3′ and IL-6 messenger RNA (mRNA), forward, 5′-GGTACATCCTCGACGGCATCT-3′, and reverse, 5′-GTGCCTCTTTGCTGCTTTCAC-3′ and GAPDH, forward, 5′-ACAACTTTGGTATCGTGGAAGG-3′, and reverse, 5′-GCC ATC ACG CCA CAG TTT-3′.

IL-8 = experiment: Pro-inflammatory cytokine measurement: IL-8 in culture supernatant by ELISA; assay type: cell-based, human; conditions: 48 h
Description: (§2) HaCaT cells (CLS Cell Lines Service, Germany) were cultured in Dulbecco's modified eagle medium (DMEM) medium supplemented with 4.5 g/L glucose, 2 mM L-glutamine and 10% fetal bovine serum. Cells were seeded on 24- or 12-well plates and grown to 80% confluence for the following assays. Cytokine measurement was conducted based on previous studies. Briefly, cells were incubated with medium alone or with 2 mg/mL purified BP-IgG or Specific-IgG and cultured in absence or presence of diacerein or berberine or clobetasol propionate (0.1, 1, and 10 μM) and culture supernatants were collected after 48 h of incubation, and stored for analysis at −20° C. IL-6 and IL-8 levels were analyzed in cell culture supernatants by ELISA (BD Biosciences) according to the manufacturer's instructions.

IL-6 = experiment: Pro-inflammatory cytokine measurement: IL-6 in culture supernatant by ELISA; assay type: cell-based, human; conditions: HaCaT cells treated with BP-IgG or specific anti-BP180 IgG 2 mg/mL; 0.1, 1, 10 μM; 48 h
Description: as §2

HaCaT cells = assay type: cell-based; conditions: 48 h, MTT
Description: HaCaT cells (CLS Cell Lines Service, Germany) were cultured in Dulbecco's modified eagle medium (DMEM) medium supplemented with 4.5 g/L glucose, 2 mM L-glutamine and 10% fetal bovine serum. Cells were seeded on 24- or 12-well plates and grown to 80% confluence for the following assays.
Exponentially growing cells of passage #3-6 (3000 cells/well in 100 μl medium) were plated in 96-well plates overnight to allow cell attachment (80% confluency) and then exposed to different concentrations of diacerein (0.1, 1, 10 μM) or berberine (0.1, 1, 10 μM) or clobetasol propionate (0.1, 1, 10 μM), and either 2 mg/mL of Healthy-IgG BP-IgG or Specific-IgG at 37° C. for 48 h.
Following drug treatment, the cell culture media were gently removed. Cells were then gently washed three times with warm medium to remove any de-attached and dead cells. Cells were incubated with MTT reagent in cell culture medium at a final concentration of 1.0 mg/mL for 2 h. The quantity of formazan (presumably directly proportional to the number of viable cells) was measured by recording changes in absorbance at 570 nm using an ELISA plate reader.

IL-6 mRNA = experiment: Quantitation of IL-6 mRNA expression by quantitative real-time PCR; assay type: cell-based, human; conditions: BP IgG-treated HaCaT cells; 0.1, 1, 10 μM; 48 h; RT-qPCR normalized to GAPDH
Description: as §1

BP180 = experiment: Immunofluorescence study of BP180 internalization in keratinocytes treated with BP-IgG; assay type: cell-based, human; conditions: 0.1 to 10 μM, confocal microscopy
Description: For this BP180 internalization study, IgG purification from BP patients and cell culture treated with different IgG and drugs (diacerein or berberine) were performed according to the procedures described in Example 1. Keratinocytes grown on glass coverslips were fixed in 4% paraformaldehyde, washed thoroughly in PBS, and permeabilized in 0.1% (v/v) Triton X-100 in PBS for 10 minutes. Primary antibodies were overlaid onto the cells, and the preparations were incubated at room temperature for 1 hour. The cells on coverslips were washed with PBS, and fluorescence-conjugated secondary antibodies were applied for 1 hour at room temperature. After being washed with PBS, coverslips were mounted onto slides. The fluorescence color for cell nucleus was dark blue and BP180 was bright green. All preparations were examined by the confocal microscopy.

| Structure (SMILES) | IL-8 mRNA expression levels (IL-8 mRNA) | secretion of IL-8 (IL-8; HaCaT cells treated with BP-IgG or Specific-IgG 2 mg/mL, 0.1, 1, 10 μM) | secretion of IL-6 (IL-6) | cytotoxicity to HaCaT cells (HaCaT cells; treatment at 0.1-10 μM) | IL-6 mRNA expression levels (IL-6 mRNA) | membranous localization of BP180 (BP180 internalization) (BP180) | secretion of IL-8 (IL-8; 0.1 μM, HaCaT cells treated with specific anti-BP180 IgG) | secretion of IL-8 (IL-8; 1 or 10 μM, HaCaT cells treated with specific anti-BP180 IgG) | HaCaT viability in presence of IgG (HaCaT cells; 10 μM, with Healthy-IgG, BP-IgG or BP Specific-IgG) | HaCaT viability (HaCaT cells; treatment at 0.1-10 μM) [%] |
| --- | --- | --- | --- | --- | --- | --- | --- | --- | --- | --- |
| CCC(=O)O[C@]1(C(=O)CCl)[C@@H](C)C[C@H]2[C@@H]3CCC4=CC(=O)C=C[C@]4(C)[C@@]3(F)[C@@H](O)C[C@@]21C [clobetasol propionate] | significantly reduced the IL-6 and IL-8 mRNA expression levels | reduced IL-6 (FIG. 1a) and IL-8 secretion (FIG. 1b) in a dose-dependent manner | reduced IL-6 (FIG. 1a) and IL-8 secretion (FIG. 1b) in a dose-dependent manner | did not have significant cytotoxicity | significantly reduced the IL-6 and IL-8 mRNA expression levels | – | – | – | – | – |
| COc1ccc2cc3[n+](cc2c1OC)CCc1cc2c(cc1-3)OCO2 [berberine, 5,6-dihydro-9,10-dimethoxybenzo(g)-1,3-benzodioxolo (5,6-a) quinolizinium] | – | – | – | did not have significant cytotoxicity | – | – | – | – | – | – |
| CC(=O)Oc1cccc2c1C(=O)c1c(OC(C)=O)cc(C(=O)O)cc1C2=O [diacerein, 4,5-bis (acetyloxy) 9, 10-dihydro-4,5-dihydroxy-9, 10-dioxo-2-anthracenecarboxylic acid] | inhibitory effects on IL-8 mRNA only at 10 μM | – | significantly reduced secretion of IL-6 | significant cytotoxicity | dose-dependent inhibitory effects on IL-6 mRNA expression levels | membranous localization of BP180 was restored | did not reduce the secretion of IL-8 | inhibitory effects of diacerein on IL-8 secretion were noted only at concentrations at 1 or 10 μM | still significantly reduced HaCaT viability | 50 |
